These compounds were tested against MAPK14 (human) (UniProt Q16539) (assay: Inhibition of MAPK14 by Human Whole Blood Assay). Settings: blood cells.
Chain of MAPK14 (human) (Q16539 whole entry, looked up): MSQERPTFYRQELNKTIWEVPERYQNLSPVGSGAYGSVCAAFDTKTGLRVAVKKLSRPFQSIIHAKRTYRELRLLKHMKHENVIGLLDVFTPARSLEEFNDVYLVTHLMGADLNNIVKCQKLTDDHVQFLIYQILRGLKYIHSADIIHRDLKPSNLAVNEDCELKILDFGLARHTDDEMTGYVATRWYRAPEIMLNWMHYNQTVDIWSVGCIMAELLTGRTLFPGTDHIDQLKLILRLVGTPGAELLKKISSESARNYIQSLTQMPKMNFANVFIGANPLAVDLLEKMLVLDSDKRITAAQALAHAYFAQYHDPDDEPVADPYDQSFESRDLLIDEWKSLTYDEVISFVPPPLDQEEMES
Compound `CCN(C(=O)c1cccc(Cl)c1C)c1ccnc(N[C@@H](C)c2ccccc2)n1` has an IC50 of under 1000 nM.
`C[C@H](Nc1nccc(N(Cc2ccc(F)cc2)C(=O)c2ccc3ccccc3c2)n1)c1ccccc1` gave an IC50 of at most 1000 nM.
In the case of `C[C@H](Nc1nccc(N(C(=O)c2ccc3ccccc3c2)C2CCNCC2)n1)c1ccccc1`, the IC50 is reported as at most 1000 nM.
`C[C@H](Nc1nccc(N(CC2CCNCC2)C(=O)c2ccc3c(c2)CCO3)n1)c1ccccc1` gave an IC50 of under 1000 nM.
With `CC(C)Nc1nccc(N(CC2CC2)C(=O)c2ccc3ccccc3c2)n1` the IC50 was under 1000 nM.
`CC(Nc1cc(N(Cc2ccc(F)cc2)C(=O)c2ccc3ccccc3c2)ccn1)c1ccc(F)cc1` (stereo unspecified) was tested, and the IC50 was at most 1000 nM.
`CCC(C)Nc1nccc(N(CC2CCNCC2)C(=O)c2ccc3c(c2)CCO3)n1` (stereo unspecified) was tested, and the IC50 was under 1000 nM.
Compound `C[C@H](Nc1nccc(N(CC2CC2)C(=O)c2ccc3ccccc3c2)n1)c1ccccc1` has an IC50 of under 1000 nM.
`CCN(C(=O)c1ccc2ccccc2c1)c1ccnc(N[C@@H](C)c2ccccc2)n1` was tested, and the IC50 was at most 1000 nM.
`CC(C)Nc1nccc(N(C)C(=O)c2ccc3ccccc3c2)n1` showed an IC50 of at most 1000 nM.
For `C[C@H](Nc1nccc(N(CC2CCNCC2)C(=O)c2ccc3c(c2)CCCC3)n1)c1ccccc1`, the IC50 was under 1000 nM.
`CCN(C(=O)c1cccc2c1OCCO2)c1ccnc(N[C@@H](C)c2ccccc2)n1` gave an IC50 of under 1000 nM.
`CNc1nccc(N(CC2CCNCC2)C(=O)c2ccc3ccccc3c2)n1` showed an IC50 of under 1000 nM.
For `C[C@H](Nc1nccc(N(CC2CCNCC2)C(=O)c2cccc3ccccc23)n1)c1ccccc1`, the IC50 was under 1000 nM.
`O=C(c1ccc2c(c1)CCC2)N(CC1CC1)c1ccnc(NC2CCC(O)CC2)n1` (stereo unspecified) gave an IC50 of under 1000 nM.
`O=C(c1ccc2ccccc2c1)N(CC1CC1)c1ccnc(NC2CCC(O)CC2)n1` (stereo unspecified) showed an IC50 of under 1000 nM.
`COc1ccc([C@H](C)Nc2cc(N(Cc3ccc(F)cc3)C(=O)c3ccc4ccccc4c3)ccn2)cc1` gave an IC50 of at most 1000 nM.
For `CC(Nc1cc(N(Cc2ccc(F)cc2)C(=O)c2ccc3ccccc3c2)ccn1)c1ccc(Cl)cc1` (stereo unspecified), the IC50 was at most 1000 nM.
Compound `C[C@H](Nc1nccc(N(Cc2ccc(S(C)(=O)=O)cc2)C(=O)c2ccc3ccccc3c2)n1)c1ccccc1` has an IC50 of at most 1000 nM.
With `C[C@H](Nc1nccc(N(C(=O)c2ccc3ccccc3c2)C2CCN(C(=O)OC(C)(C)C)CC2)n1)c1ccccc1` the IC50 was under 1000 nM.
Work on `COCCN(C(=O)c1ccc2ccccc2c1)c1ccnc(NC(C)C)n1` yielded an IC50 of at most 1000 nM.
`CCN(C(=O)c1ccc2ccccc2c1)c1ccnc(NC2CCC(N)CC2)n1` (stereo unspecified) showed an IC50 of under 1000 nM.
Work on `CCN(C(=O)c1cccc(C(Cl)Cl)c1)c1ccnc(N[C@@H](C)c2ccccc2)n1` yielded an IC50 of under 1000 nM.
`CC(C)N(C(=O)c1ccc2ccccc2c1)c1ccnc(N[C@@H](C)c2ccccc2)n1` was tested, and the IC50 was at most 1000 nM.
Work on `C[C@H](Nc1nccc(N(CC2CCN(C3CCCC3)CC2)C(=O)c2ccc3c(c2)CCO3)n1)c1ccccc1` yielded an IC50 of under 1000 nM.
`CCN(C(=O)c1ccc2c(c1)CCO2)c1ccnc(N[C@@H](C)c2ccccc2)n1` was tested, and the IC50 was at most 1000 nM.
In the case of `O=C(c1ccc2ccccc2c1)N(Cc1ccc(F)cc1)c1ccnc(NC(c2ccccc2)c2ccccc2)c1`, the IC50 is reported as at most 1000 nM.
In the case of `CC(=O)N(Cc1ccc(F)cc1)c1ccnc(N[C@@H](C)c2ccccc2)c1`, the IC50 is reported as at most 1000 nM.
In the case of `C[C@H](Nc1cc(N(Cc2ccc(F)cc2)C(=O)c2ccc3ccccc3c2)ncn1)c1ccccc1`, the IC50 is reported as at most 1000 nM.
In the case of `CCc1cccc(C(=O)N(CC)c2ccnc(N[C@@H](C)c3ccccc3)n2)c1`, the IC50 is reported as under 1000 nM.
`COC(=O)CN1CCC(CN(C(=O)c2ccc3c(c2)CCO3)c2ccnc(NC(C)C)n2)CC1` gave an IC50 of under 1000 nM.
For `CC(C)Nc1nccc(N(C(=O)c2ccc3ccccc3c2)C(C)C)n1`, the IC50 was at most 1000 nM.
Work on `CCC(COC)Nc1nccc(N(CC2CCNCC2)C(=O)c2ccc3c(c2)CCO3)n1` (stereo unspecified) yielded an IC50 of under 1000 nM.
`CCN(C(=O)c1ccc2occc2c1)c1ccnc(N[C@@H](C)c2ccccc2)n1` showed an IC50 of under 1000 nM.
For `C[C@H](Nc1nccc(N(CC2CC2)C(=O)c2ccc3c(c2)CCO3)n1)c1ccccc1`, the IC50 was under 1000 nM.
`C[C@H](Nc1nccc(N(C(=O)c2ccc3ccccc3c2)C2CC(C)(C)NC(C)(C)C2)n1)c1ccccc1` gave an IC50 of under 1000 nM.
For `C[C@H](Nc1nccc(N(CCCCN)C(=O)c2ccc3c(c2)CCO3)n1)c1ccccc1`, the IC50 was under 1000 nM.
`COCCNc1nccc(N(CC2CCNCC2)C(=O)c2ccc3c(c2)CCO3)n1` was tested, and the IC50 was under 1000 nM.
`CCCN(C(=O)c1ccc2ccccc2c1)c1ccnc(N[C@@H](C)c2ccccc2)n1` showed an IC50 of at most 1000 nM.
`O=C(c1ccc2ccccc2c1)N(Cc1ccc(F)cc1)c1ccnc(NC2CCCCC2)c1` gave an IC50 of at most 1000 nM.
For `O=C(c1ccc2c(c1)CCO2)N(CC1CCNCC1)c1ccnc(NC2CCCC2)n1`, the IC50 was under 1000 nM.
Compound `C[C@H](Nc1nccc(N(CC2CCNCC2)C(=O)c2ccc3c(c2)CCC3)n1)c1ccccc1` has an IC50 of under 1000 nM.
`C[C@H](Nc1cc(N(Cc2ccc(F)cc2)C(=O)c2ccc3ccccc3c2)ccn1)c1ccc2ccccc2c1` showed an IC50 of at most 1000 nM.
For `CCC(Nc1cc(N(Cc2ccc(F)cc2)C(=O)c2ccc3ccccc3c2)ccn1)c1ccccc1` (stereo unspecified), the IC50 was at most 1000 nM.
In the case of `CCN(C(=O)c1cccc(C2CC2)c1)c1ccnc(N[C@@H](C)c2ccccc2)n1`, the IC50 is reported as under 1000 nM.
`CCN(C(=O)c1ccc2ccccc2c1)c1ccnc(NC2CCNCC2)n1` gave an IC50 of at most 1000 nM.
Compound `C[C@H](Nc1nccc(N(Cc2cccnc2)C(=O)c2ccc3ccccc3c2)n1)c1ccccc1` has an IC50 of at most 1000 nM.
With `COCCCNc1nccc(N(CC2CCNCC2)C(=O)c2ccc3c(c2)CCO3)n1` the IC50 was under 1000 nM.
Work on `CC(C)Nc1nccc(N(Cc2ccc(F)cc2)C(=O)c2ccc3ccccc3c2)n1` yielded an IC50 of at most 1000 nM.
For `NCCCCN(C(=O)c1ccc2c(c1)CCO2)c1ccnc(NC2CCC(O)CC2)n1` (stereo unspecified), the IC50 was under 1000 nM.
Work on `CCN(C(=O)c1cccc(Cl)c1)c1ccnc(N[C@@H](C)c2ccccc2)n1` yielded an IC50 of under 1000 nM.
`CC(C)(C)CNc1nccc(N(CC2CCNCC2)C(=O)c2ccc3c(c2)CCO3)n1` showed an IC50 of under 1000 nM.
For `CC(C)Nc1nccc(N(CCC[C@@H](N)C(=O)N(C)C)C(=O)c2ccc3c(c2)CCO3)n1`, the IC50 was under 1000 nM.
Compound `O=C(c1ccc2c(c1)CCO2)N(CC1CCNCC1)c1ccnc(NC2CCC[C@@H]2O)n1` (stereo partly specified) has an IC50 of under 1000 nM.
For `C[C@H](Nc1nccc(N(CC2CCNCC2)C(=O)c2sc3ccccc3c2Cl)n1)c1ccccc1`, the IC50 was under 1000 nM.
`CC1CCCCC1Nc1nccc(N(CC2CCNCC2)C(=O)c2ccc3c(c2)CCO3)n1` (stereo unspecified) was tested, and the IC50 was under 1000 nM.
`COCC(C)Nc1nccc(N(CCCCN)C(=O)c2ccc3c(c2)CCO3)n1` (stereo unspecified) was tested, and the IC50 was under 1000 nM.
With `O=C(c1ccc2ccccc2c1)N(Cc1ccc(F)cc1)c1ccnc(NC2CCN(Cc3ccccc3)CC2)c1` the IC50 was at most 1000 nM.
`CC(C)Nc1nccc(N(CCCCN2CCCC2)C(=O)c2ccc3c(c2)CCO3)n1` was tested, and the IC50 was under 1000 nM.
In the case of `C[C@H](Nc1cc(N(Cc2ccc(F)cc2)S(=O)(=O)c2ccc3ccccc3c2)ccn1)c1ccccc1`, the IC50 is reported as at most 1000 nM.
`COCCN(C(=O)c1ccc2c(c1)CCC2)c1ccnc(N[C@@H](C)c2ccccc2)n1` was tested, and the IC50 was under 1000 nM.
`CC(C)Nc1nccc(N(CCCCN)C(=O)c2ccc3c(c2)CCO3)n1` was tested, and the IC50 was under 1000 nM.
`COCCN(C(=O)c1cccc(C)c1C)c1ccnc(N[C@@H](C)c2ccccc2)n1` was tested, and the IC50 was under 1000 nM.
In the case of `COCCN(C(=O)c1ccc2ccccc2c1)c1ccnc(N[C@@H](C)c2ccccc2)n1`, the IC50 is reported as at most 1000 nM.
In the case of `C[C@H](Nc1nccc(N(CC2CCNCC2)C(=O)c2ccc3ccccc3c2)n1)c1ccccc1`, the IC50 is reported as under 1000 nM.
For `CCN(C(=O)c1scc2c1CCCC2)c1ccnc(N[C@@H](C)c2ccccc2)n1`, the IC50 was under 1000 nM.
`CCN(C(=O)c1ccc2nccnc2c1)c1ccnc(N[C@@H](C)c2ccccc2)n1` showed an IC50 of at most 1000 nM.
`O=C(c1ccc2ccccc2c1)N(Cc1ccc(F)cc1)c1ccnc(N[C@H]2CCc3ccccc32)c1` was tested, and the IC50 was at most 1000 nM.
Work on `CC(C)Nc1nccc(N(CC2CCNCC2)C(=O)c2ccc3c(c2)CCO3)n1` yielded an IC50 of under 1000 nM.
Compound `Nc1cc(N(Cc2ccc(F)cc2)C(=O)c2ccc3ccccc3c2)ccn1` has an IC50 of at most 1000 nM.
`O=C(c1ccc2c(c1)CCO2)N(CC1CCNCC1)c1ccnc(NC2CC2)n1` gave an IC50 of under 1000 nM.
`COC(=O)c1ccc(CNc2cc(N(Cc3ccc(F)cc3)C(=O)c3ccc4ccccc4c3)ccn2)cc1` gave an IC50 of at most 1000 nM.
Work on `CC(C)C(C)Nc1nccc(N(CC2CCNCC2)C(=O)c2ccc3c(c2)CCO3)n1` (stereo unspecified) yielded an IC50 of under 1000 nM.
For `O=C(c1ccc2ccccc2c1)N(CC1CCNCC1)c1ccnc(NC2CCOCC2)n1`, the IC50 was under 1000 nM.
`CC(C)Nc1nccc(N(CC2CC[C@H](N)C2)C(=O)c2ccc3c(c2)CCO3)n1` (stereo partly specified) gave an IC50 of under 1000 nM.
Compound `CCN(C(=O)c1cccc2c1OCC2)c1ccnc(N[C@@H](C)c2ccccc2)n1` has an IC50 of under 1000 nM.
In the case of `CCN(C(=O)c1cccc(C)c1C)c1ccnc(N[C@@H](C)c2ccccc2)n1`, the IC50 is reported as under 1000 nM.
With `CCN(C(=O)c1ccc2c(c1)CCC2)c1ccnc(N[C@@H](C)c2ccccc2)n1` the IC50 was under 1000 nM.
Compound `O=C(c1ccc2ccccc2c1)N(Cc1ccc(F)cc1)c1ccnc(NCCN2CCOCC2)c1` has an IC50 of at most 1000 nM.
With `CCN(C(=O)c1cccc(C)c1)c1ccnc(N[C@@H](C)c2ccccc2)n1` the IC50 was under 1000 nM.
With `C[C@H](Nc1cc(N(Cc2ccc(F)cc2)C(=O)c2ccccc2)ccn1)c1ccccc1` the IC50 was at most 1000 nM.
In the case of `COCCCN(C(=O)c1ccc2ccccc2c1)c1ccnc(N[C@@H](C)c2ccccc2)n1`, the IC50 is reported as under 1000 nM.
`C[C@H](Nc1cc(N(C)C(=O)N2CCc3ccccc3C2)ccn1)c1ccccc1` was tested, and the IC50 was at most 1000 nM.
Compound `CCN(C(=O)c1ccc2snnc2c1)c1ccnc(N[C@@H](C)c2ccccc2)n1` has an IC50 of at most 1000 nM.
`O=C(c1ccc2ccccc2c1)N(Cc1ccc(F)cc1)c1ccnc(NCc2ccccc2)c1` was tested, and the IC50 was at most 1000 nM.
For `CC(C)Nc1nccc(N(CCCCCN)C(=O)c2ccc3c(c2)CCO3)n1`, the IC50 was under 1000 nM.
For `C[C@H](Nc1cc(N(Cc2ccc(F)cc2)C(=O)c2cccs2)ccn1)c1ccccc1`, the IC50 was at most 1000 nM.
In the case of `C[C@@H](Nc1cc(N(Cc2ccc(F)cc2)C(=O)c2ccc3ccccc3c2)ccn1)c1ccccc1`, the IC50 is reported as at most 1000 nM.
`CC(C)Nc1cc(N(Cc2ccc(F)cc2)C(=O)c2ccc3ccccc3c2)ccn1` gave an IC50 of at most 1000 nM.
Work on `CCN(C(=O)c1cc(C)ccc1F)c1ccnc(N[C@@H](C)c2ccccc2)n1` yielded an IC50 of under 1000 nM.
In the case of `C[C@H](Nc1nccc(N(CC2CCN(C(N)=O)CC2)C(=O)c2ccc3c(c2)CCO3)n1)c1ccccc1`, the IC50 is reported as under 1000 nM.
Compound `C[C@H](Nc1nccc(N(CC2CCNC2)C(=O)c2ccc3c(c2)CCO3)n1)c1ccccc1` (stereo partly specified) has an IC50 of under 1000 nM.
`C[C@H](Nc1cc(N(Cc2ccccc2)C(=O)c2ccc3ccccc3c2)ccn1)c1ccccc1` showed an IC50 of at most 1000 nM.
`CCCN(C(=O)c1ccc2ccccc2c1)c1ccnc(NC(C)C)n1` showed an IC50 of at most 1000 nM.
Compound `C[C@H](Nc1nccc(N(C)C(=O)c2ccc3ccccc3c2)n1)c1ccccc1` has an IC50 of at most 1000 nM.
`O=C(c1ccc2ccccc2c1)N(Cc1ccc(F)cc1)c1ccnc(N[C@H]2CCCc3ccccc32)c1` was tested, and the IC50 was at most 1000 nM.

Source: the Kinase Knowledgebase extract (Sharma et al. 2016)
